For orientation: AC50 means the concentration at which the activity in the assay is half-maximal. Higher therefore signals activity only at high concentration. As usually defined, the Emax is the greatest response seen or fitted, relative to the assay's reference.

This experiment deals with T1, glucocerebrosidase (GCase) (Homo sapiens, UniProt P04062).
T1 sequence (P04062 40-536): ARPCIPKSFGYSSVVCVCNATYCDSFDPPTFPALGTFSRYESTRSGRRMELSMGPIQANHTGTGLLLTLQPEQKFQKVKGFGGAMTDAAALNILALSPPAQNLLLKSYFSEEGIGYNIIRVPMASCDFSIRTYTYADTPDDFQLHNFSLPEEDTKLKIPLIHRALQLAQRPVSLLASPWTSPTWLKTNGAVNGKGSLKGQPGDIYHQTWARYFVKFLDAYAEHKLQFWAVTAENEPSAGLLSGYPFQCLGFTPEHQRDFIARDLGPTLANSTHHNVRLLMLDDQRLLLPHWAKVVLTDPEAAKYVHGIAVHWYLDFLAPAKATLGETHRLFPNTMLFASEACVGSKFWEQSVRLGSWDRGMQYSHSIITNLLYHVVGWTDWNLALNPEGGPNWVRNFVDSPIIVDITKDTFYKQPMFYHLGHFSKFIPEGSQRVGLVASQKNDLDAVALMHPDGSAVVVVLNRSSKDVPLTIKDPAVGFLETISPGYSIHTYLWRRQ
Kind of experiment: Glucocerebrosidase activation (Table 1, Exemplary Compounds and Activities). The experiment is classed as biochemical. The note with it: activation of glucocerebrosidase. The source says: The compounds disclosed herein preferably modulate activity of glucocerebrosidase. Modulation may include inhibiting or decreasing glucocerebrosidase activity. Modulation also may include activating or increasing glucocerebrosidase activity. Glucocerebrosidase activity may be assessed utilizing methods known in the art and the methods disclosed herein, including the methods disclosed in the Examples provided herein. In some embodiments, the compounds decrease or increase glucocerebrosidase activity relative to a control (e.g., by at least about 10%, 20%, 30%, 40%, 50%, 60%, 70%, 80%, 90%, 100%, 200%, 300%, 400%, 500%, 600%, 700%, 800%, 900%, 1000% or more (or within a range bounded by any of these values)). In other embodiments, the compounds activate glucocerebrosidase greater than about 2-fold, 3-fold, 4-fold, 5-fold, 10-fold, 20-fold, 30-fold, 40-fold, 50-fold, 60-fold, 70-fold, 80-fold, 90-fold, or 100-fold, relative to a control. […] In other embodiments, an AC50 value for the compound in regard to activation of glucocerebrosidase may be determined and preferably the compound has an AC50 value of less than about 10 μM, 5 μM, or 1 μM, 0.5 μM, 0.1 μM, 0.05 μM, 0.01 μM, 0.005 μM, or 0.001 μM (or within a range bounded by any of these values).
Methods for measuring glucocerebrosidase activity are known in the art. (See, e.g., U.S. Publication No. 2017/0001976 and U.S. Publication No. 2017/0002013 and Zheng et al. “Design and Synthesis of Potent Quinazolines as Selective β-Glucocerebrosidase Modulators, J. Med. Chem. 2016 September 22; 59(18): 8508-8520; the contents of which are incorporated herein by reference in their entireties).
The disclosed pyrrolopyrimidine compounds were synthesized and tested using the methods described below. Additional methods for synthesizing and testing pyrrolopyrimidine compounds are described in the art. (See, e.g., Zheng et al., β-Glucocerebrosidase Modulators Promote Dimerization of β-Glucocerebrosidase and Reveal an Allosteric Binding Site, J. Am. Chem. Soc., 2018, 140 (18), pp 5914-5924; and U.S. Pat. No. 9,802,942; the contents of which are incorporated herein by reference in their entireties).

`Cc1cc(C)n2ccc(C(=O)Nc3cccc(CC(=O)Oc4ccc([N+](=O)[O-])cc4)c3)c2n1` [compound 51] registered an AC50 of 10 µM. In addition, the maximum response (Emax) (read-out: Maximum Activation (Emax)) was 172%.
